# Results from patent publication US20130178597A1, “POLYIMIDE PRECURSOR, POLYIMIDE, AND MATERIALS TO BE USED IN PRODUCING SAME” (UBE INDUSTRIES, LTD., priority 2010, published 2013).
# Key:
# [1] = Light transmittance at 400 nm of a-BPDA powder, 10 mass % in 2 N aqueous sodium hydroxide; type: physicochemical; conditions: light path 1 cm
# [2] = Light transmittance at 400 nm of s-BPDA powder, 10 mass % in 2 N aqueous sodium hydroxide; type: physicochemical; conditions: light path 1 cm
# Description: (§1) A predetermined amount of s-BPDA powder was dissolved in a 2 N aqueous solution of sodium hydroxide to obtain a 10 mass % aqueous solution. Using a MCPD-300 manufactured by Otsuka Electronics Co., Ltd., and a standard cell having a light path length of 1 cm, the light transmittance at 400 nm of the s-BPDA solution was measured using the 2 N aqueous solution of sodium hydroxide as a blank.
# [3] = Solubility of s-BPDA at 25° C. in solvent; conditions: s-BPDA in the solvent used in the example
# Description: The non-dissolved s-BPDA was filtered through filter paper 5A manufactured by Advantec, Inc. to obtain s-BPDA saturated solution. 5 g of the s-BPDA saturated solution was charged into an aluminum dish, heated for 1 hour at 80° C., and then heated for 1 hour at 200° C. The solubility was calculated by determining the mass of s-BPDA remaining in the saturated solution based on the residue after heating.
# [4] = Light transmittance at 400 nm of i-BPDA powder, 10 mass % in 2 N aqueous sodium hydroxide; type: physicochemical; conditions: light path 1 cm
# Description: as §1, with “i-BPDA” for “s-BPDA”
# [5] = Solubility of i-BPDA at 25° C. in solvent; type: physicochemical; conditions: i-BPDA in the solvent used in the example
# Description: The non-dissolved i-BPDA was filtered through filter paper 5A manufactured by Advantec, Inc. to obtain i-BPDA saturated solution. 5 g of the i-BPDA saturated solution was charged into an aluminum dish, heated for 1 hour at 80° C., and then heated for 1 hour at 200° C. The solubility was calculated by determining the mass of i-BPDA remaining in the saturated solution based on the residue after heating.
# [6] = Light transmittance at 400 nm of trans-1,4-diaminocyclohexane powder, 10 mass % in pure water; type: physicochemical; conditions: light path 1 cm
# Description: as §1, with “trans-1,4-diaminocyclohexane” for “s-BPDA”, “pure water” for “a 2 N aqueous solution of sodium hydroxide”, “pure water” for “the 2 N aqueous solution of sodium hydroxide”
# [7] = Light transmittance of solvent at 400 nm; type: physicochemical; conditions: light path 1 cm, water as a blank
# Description: Using a MCPD-300 manufactured by Otsuka Electronics Co., Ltd., and a standard cell having a light path length of 1 cm, the light transmittance of a solvent at 400 nm was measured using water as a blank.
# [8] = Light transmittance of solvent at 400 nm after heating with refluxing; type: physicochemical; conditions: heated to reflux for 3 hours under nitrogen atmosphere
# Description: For light transmittance after heating with refluxing, measurement was carried out using a solvent that had been heated to reflux for 3 hours under nitrogen atmosphere having oxygen concentration of 200 ppm or less.
structure (smiles),measurement,setting,value
"O=C1OC(=O)c2cc(-c3cccc4c3C(=O)OC4=O)ccc21 [Comparative Example C1, 2,3,3′,4′-Biphenyltetracarboxylic dianhydride, reference compound]",light transmittance at 400 nm (a-BPDA powder),[1],77%
"O=C1OC(=O)c2cc(-c3cccc4c3C(=O)OC4=O)ccc21 [Comparative Example C2, 2,3,3′,4′-Biphenyltetracarboxylic dianhydride, reference compound]",light transmittance at 400 nm (a-BPDA powder),[1],81%
"O=C1OC(=O)c2cc(-c3cccc4c3C(=O)OC4=O)ccc21 [Comparative Example C4, 2,3,3′,4′-Biphenyltetracarboxylic dianhydride, reference compound]",light transmittance at 400 nm (a-BPDA powder),[1],84%
"O=C1OC(=O)c2cc(-c3ccc4c(c3)C(=O)OC4=O)ccc21 [Comparative Example D1, 3,3′,4,4′-Biphenyltetracarboxylic dianhydride, reference compound]",light transmittance of obtained s-BPDA powder at 400 nm,[2],75%
"O=C1OC(=O)c2cc(-c3ccc4c(c3)C(=O)OC4=O)ccc21 [Comparative Example D2, 3,3′,4,4′-Biphenyltetracarboxylic dianhydride, reference compound]",light transmittance of obtained s-BPDA powder at 400 nm,[2],75%
same,Solubility of used solvent at 25° C.,[3],<0.1 g/100 g
"O=C1OC(=O)c2cc(-c3ccc4c(c3)C(=O)OC4=O)ccc21 [Comparative Example D3, 3,3′,4,4′-Biphenyltetracarboxylic dianhydride, reference compound]",light transmittance of obtained s-BPDA powder at 400 nm,[2],75%
same,Solubility of used solvent at 25° C.,[3],<0.1 g/100 g
"O=C1OC(=O)c2cc(-c3ccc4c(c3)C(=O)OC4=O)ccc21 [Comparative Example D4, 3,3′,4,4′-Biphenyltetracarboxylic dianhydride, reference compound]",light transmittance of obtained s-BPDA powder at 400 nm,[2],72%
"O=C1OC(=O)c2cc(-c3ccc4c(c3)C(=O)OC4=O)ccc21 [Comparative Example D5, 3,3′,4,4′-Biphenyltetracarboxylic dianhydride, reference compound]",light transmittance of obtained s-BPDA powder at 400 nm,[2],3%
"O=C1OC(=O)c2c1cccc2-c1cccc2c1C(=O)OC2=O [Comparative Example F1, 2,2′,3,3′-Biphenyltetracarboxylic dianhydride, reference compound]",Light Transmittance at 400 nm (i-BPDA),[4],79%
"O=C1OC(=O)c2c1cccc2-c1cccc2c1C(=O)OC2=O [Comparative Example F2, 2,2′,3,3′-Biphenyltetracarboxylic dianhydride, reference compound]",Solubility at 25° C.,[5],<0.1 g/100 g
same,Light Transmittance at 400 nm (i-BPDA),[4],79%
"O=C1OC(=O)c2c1cccc2-c1cccc2c1C(=O)OC2=O [Comparative Example F3, 2,2′,3,3′-Biphenyltetracarboxylic dianhydride, reference compound]",Light Transmittance at 400 nm (i-BPDA),[4],66%
"O=C1OC(=O)c2cc(-c3cccc4c3C(=O)OC4=O)ccc21 [Example C1, 2,3,3′,4′-Biphenyltetracarboxylic dianhydride]",light transmittance at 400 nm (a-BPDA powder),[1],98%
"O=C1OC(=O)c2cc(-c3cccc4c3C(=O)OC4=O)ccc21 [Example C2, 2,3,3′,4′-Biphenyltetracarboxylic dianhydride]",light transmittance at 400 nm (a-BPDA powder),[1],97%
"O=C1OC(=O)c2cc(-c3cccc4c3C(=O)OC4=O)ccc21 [Example C3, 2,3,3′,4′-Biphenyltetracarboxylic dianhydride]",light transmittance at 400 nm (a-BPDA powder),[1],94%
"O=C1OC(=O)c2cc(-c3cccc4c3C(=O)OC4=O)ccc21 [Example C4, 2,3,3′,4′-Biphenyltetracarboxylic dianhydride]",light transmittance at 400 nm (a-BPDA powder),[1],92%
"O=C1OC(=O)c2cc(-c3cccc4c3C(=O)OC4=O)ccc21 [Example C5, 2,3,3′,4′-Biphenyltetracarboxylic dianhydride]",light transmittance at 400 nm (a-BPDA powder),[1],89%
"O=C1OC(=O)c2cc(-c3ccc4c(c3)C(=O)OC4=O)ccc21 [Example D1, 3,3′,4,4′-Biphenyltetracarboxylic dianhydride]",light transmittance of obtained s-BPDA powder at 400 nm,[2],81%
same,Solubility of used solvent at 25° C.,[3],1.3 g/100 g
"O=C1OC(=O)c2cc(-c3ccc4c(c3)C(=O)OC4=O)ccc21 [Example D2, 3,3′,4,4′-Biphenyltetracarboxylic dianhydride]",light transmittance of obtained s-BPDA powder at 400 nm,[2],81%
"O=C1OC(=O)c2cc(-c3ccc4c(c3)C(=O)OC4=O)ccc21 [Example D3, 3,3′,4,4′-Biphenyltetracarboxylic dianhydride]",light transmittance of obtained s-BPDA powder at 400 nm,[2],82%
same,Solubility of used solvent at 25° C.,[3],2.3 g/100 g
"O=C1OC(=O)c2cc(-c3ccc4c(c3)C(=O)OC4=O)ccc21 [Example D4, 3,3′,4,4′-Biphenyltetracarboxylic dianhydride]",light transmittance of obtained s-BPDA powder at 400 nm,[2],78%
"O=C1OC(=O)c2cc(-c3ccc4c(c3)C(=O)OC4=O)ccc21 [Example D5, 3,3′,4,4′-Biphenyltetracarboxylic dianhydride]",Solubility of used solvent at 25° C.,[3],0.1 g/100 g
"O=C1OC(=O)c2cc(-c3ccc4c(c3)C(=O)OC4=O)ccc21 [Example D6, 3,3′,4,4′-Biphenyltetracarboxylic dianhydride]",Solubility of used solvent at 25° C.,[3],0.4 g/100 g
"O=C1OC(=O)c2cc(-c3ccc4c(c3)C(=O)OC4=O)ccc21 [Example D7, 3,3′,4,4′-Biphenyltetracarboxylic dianhydride]",light transmittance of obtained s-BPDA powder at 400 nm,[2],79%
same,Solubility of used solvent at 25° C.,[3],0.3 g/100 g
"O=C1OC(=O)c2cc(-c3ccc4c(c3)C(=O)OC4=O)ccc21 [Example D8, 3,3′,4,4′-Biphenyltetracarboxylic dianhydride]",light transmittance of obtained s-BPDA powder at 400 nm,[2],91%
"N[C@H]1CC[C@H](N)CC1 [Example E2, trans-1,4-diaminocyclohexane]","Light Transmittance at 400 nm (trans-1,4-diaminocyclohexane powder)",[6],96%
"O=C1OC(=O)c2c1cccc2-c1cccc2c1C(=O)OC2=O [Example F1, 2,2′,3,3′-Biphenyltetracarboxylic dianhydride]",Solubility at 25° C.,[5],3.2 g/100 g
same,Light Transmittance at 400 nm (i-BPDA),[4],91%
"O=C1OC(=O)c2c1cccc2-c1cccc2c1C(=O)OC2=O [Example F2, 2,2′,3,3′-Biphenyltetracarboxylic dianhydride]",Solubility at 25° C.,[5],4.4 g/100 g
same,Light Transmittance at 400 nm (i-BPDA),[4],92%
"O=C1OC(=O)c2c1cccc2-c1cccc2c1C(=O)OC2=O [Example F3, 2,2′,3,3′-Biphenyltetracarboxylic dianhydride]",Solubility at 25° C.,[5],6.8 g/100 g
same,Light Transmittance at 400 nm (i-BPDA),[4],93%
"O=C1OC(=O)c2c1cccc2-c1cccc2c1C(=O)OC2=O [Example F4, 2,2′,3,3′-Biphenyltetracarboxylic dianhydride]",Light Transmittance at 400 nm (i-BPDA),[4],93%
"O=C1OC(=O)c2c1cccc2-c1cccc2c1C(=O)OC2=O [Example F5, 2,2′,3,3′-Biphenyltetracarboxylic dianhydride]",Light Transmittance at 400 nm (i-BPDA),[4],91%
"O=C1OC(=O)c2c1cccc2-c1cccc2c1C(=O)OC2=O [Example F6, 2,2′,3,3′-Biphenyltetracarboxylic dianhydride]",Light Transmittance at 400 nm (i-BPDA),[4],95%
"O=C1OC(=O)c2c1cccc2-c1cccc2c1C(=O)OC2=O [Example F7, 2,2′,3,3′-Biphenyltetracarboxylic dianhydride]",Light Transmittance at 400 nm (i-BPDA),[4],89%
"CN1CCCC1=O [NMP (99.62%), N-methyl-2-pyrrolidone]",Light Transmittance at 400 nm (solvent),[7],88%
same,Light Transmittance at 400 nm after reflux (solvent),[8],0.1%
"CN1CCCC1=O [NMP (99.96%), N-methyl-2-pyrrolidone]",Light Transmittance at 400 nm (solvent),[7],89%
same,Light Transmittance at 400 nm after reflux (solvent),[8],41%
"N[C@H]1CC[C@H](N)CC1 [Referential Example E1, trans-1,4-diaminocyclohexane]","Light Transmittance at 400 nm (trans-1,4-diaminocyclohexane powder)",[6],86%
"N[C@H]1CC[C@H](N)CC1 [Referential Example E2, trans-1,4-diaminocyclohexane]","Light Transmittance at 400 nm (trans-1,4-diaminocyclohexane powder)",[6],89%
